Measured values: patent publication US9833497B2, “Human originated EGF domain proteins and use of the same” (CHENGDU SOURCEBIO LIMITED-LIABILITY COMPANY, priority 2013, dated 2017)

Key:
Type in all cases: cell-based
Klebsiella pneumonia = test: MIC against Gram-negative bacteria: Klebsiella pneumonia
In short: (§1)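 Purified recombinant human EGF domain proteins are tested by broth dilution in LB against a 5×10^5 CFU/mL inoculum, with two-fold serial dilutions run in triplicate. Plates are incubated at 37° C with shaking, and the MIC is read as the lowest protein concentration without growth.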

Pseudomonas aeruginosa = test: MIC against Gram-negative bacteria: Pseudomonas aeruginosa
In short: as §1

Enterobacter cloacae = test: MIC against Gram-negative bacteria: Enterobacter cloacae
In short: as §1

Aeromonas hydrophila = test: MIC against Gram-negative bacteria: Aeromonas hydrophila
In short: as §1

Proteus vulgaris = test: MIC against Gram-negative bacteria: Proteus vulgaris
In short: as §1

E. coli DH5α = test: Antibacterial activity: MIC and growth curve against E. coli DH5α in 96-well plate; conditions: minimal inhibitory concentration against E. coli DH5α; 96-well plate, 5×10^5 CFU/mL, 37° C., judged after 8 h
In short: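 MIC taken as lowest protein level with no bacterial growth, tracked by A600 every 30 min during 37 °C, 175 rpm culture. Two-fold protein series 50-12.5 μg/mL final, triplicate wells, against 5×10^5 CFU/mL of LB-washed mid-log cells.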

Proteus mirabilis = test: MIC against Gram-negative bacteria: Proteus mirabilis
In short: as §1

Serratia marcescens = test: MIC against Gram-negative bacteria: Serratia marcescens
In short: as §1

Citrobacter diversus = test: MIC against Gram-negative bacteria: Citrobacter diversus
In short: as §1

Moraxella catarrhalis = test: MIC against Gram-negative bacteria: Moraxella catarrhalis
In short: as §1

E. coli BL21 = test: MIC against Gram-negative bacteria: E. coli BL21
In short: as §1

[1] = K. pneumonia, 10 h cultivation at 37° C., 5×10^5 CFU/mL
[2] = P. aeruginosa, 10 h cultivation at 37° C., 5×10^5 CFU/mL
[3] = E. cloacae, 10 h cultivation at 37° C., 5×10^5 CFU/mL
[4] = A. hydrophila, 10 h cultivation at 37° C., 5×10^5 CFU/mL
[5] = P. vulgaris, 10 h cultivation at 37° C., 5×10^5 CFU/mL
[6] = P. mirabilis, 10 h cultivation at 37° C., 5×10^5 CFU/mL
[7] = S. marcescens, 10 h cultivation at 37° C., 5×10^5 CFU/mL
[8] = C. diversus, 10 h cultivation at 37° C., 5×10^5 CFU/mL
[9] = M. catarrhalis, 10 h cultivation at 37° C., 5×10^5 CFU/mL
[10] = E. coli BL21, 10 h cultivation at 37° C., 5×10^5 CFU/mL
[11] = Klebsiella pneumonia, 96-well plate, 5×10^5 CFU/mL, 37° C., 10 h
[12] = Pseudomonas aeruginosa, 96-well plate, 5×10^5 CFU/mL, 37° C., 10 h
[13] = Enterobacter cloacae, 96-well plate, 5×10^5 CFU/mL, 37° C., 10 h
[14] = Aeromonas hydrophila, 96-well plate, 5×10^5 CFU/mL, 37° C., 10 h
[15] = Proteus vulgaris, 96-well plate, 5×10^5 CFU/mL, 37° C., 10 h
[16] = Proteus mirabilis, 96-well plate, 5×10^5 CFU/mL, 37° C., 10 h
[17] = Serratia marcescens, 96-well plate, 5×10^5 CFU/mL, 37° C., 10 h
[18] = Citrobacter diversus, 96-well plate, 5×10^5 CFU/mL, 37° C., 10 h
[19] = Moraxella catarrhalis, 96-well plate, 5×10^5 CFU/mL, 37° C., 10 h
[20] = E. coli BL21, 96-well plate, 5×10^5 CFU/mL, 37° C., 10 h
[21] = 96-well plate, 5×10^5 CFU/mL, 37° C., 10 h
[22] = 10 h cultivation at 37° C., 5×10^5 CFU/mL, two-fold serial dilution

Substance	MIC (μg/mL) K. pneumonia (Klebsiella pneumonia; [1])	MIC (μg/mL) P. aeruginosa (Pseudomonas aeruginosa; [2])	MIC (μg/mL) E. cloacae (Enterobacter cloacae; [3])	MIC (μg/mL) A. hydrophila (Aeromonas hydrophila; [4])	MIC (μg/mL) P. vulgaris (Proteus vulgaris; [5])	MIC (E. coli DH5α)	MIC (μg/mL) P. mirabilis (Proteus mirabilis; [6])	MIC (μg/mL) S. marcescens (Serratia marcescens; [7])	MIC (μg/mL) C. diversus (Citrobacter diversus; [8])	MIC (μg/mL) M. catarrhalis (Moraxella catarrhalis; [9])	MIC (μg/mL) E. coli BL21 (E. coli BL21; [10])	also measured
PRT882 (SAKQCDSYPCKNNAVCKDGWNRFICDCTGTGYWGRTCE; listed as Homo sapiens)	12.5 µg/mL	25 µg/mL	25 µg/mL	100 µg/mL	12.5 µg/mL	25 µg/mL	50 µg/mL	50 µg/mL	50 µg/mL	12.5 µg/mL	12.5 µg/mL	
PRT160 (KIDYCILDPCRNGATCISSLSGFTCQCPEGYFGSACE; listed as Homo sapiens)	25 µg/mL	12.5 µg/mL	25 µg/mL	25 µg/mL	25 µg/mL	12.5 µg/mL	12.5 µg/mL	12.5 µg/mL	12.5 µg/mL	25 µg/mL	25 µg/mL	
PRT39 (PVRDCSRNNGGCTRNFKCVSDRQVDSSGCVCPEELKPMKDGSGCY; listed as Homo sapiens)						50 µg/mL						MIC (μg/mL) K. pneumonia (Klebsiella pneumonia; [11]): 50 µg/mL; MIC (μg/mL) P. aeruginosa (Pseudomonas aeruginosa; [12]): 50 µg/mL; MIC (μg/mL) E. cloacae (Enterobacter cloacae; [13]): 25 µg/mL; MIC (μg/mL) A. hydrophila (Aeromonas hydrophila; [14]): 50 µg/mL; MIC (μg/mL) P. vulgaris (Proteus vulgaris; [15]): 12.5 µg/mL; MIC (μg/mL) P. mirabilis (Proteus mirabilis; [16]): 25 µg/mL; MIC (μg/mL) S. marcescens (Serratia marcescens; [17]): 12.5 µg/mL; MIC (μg/mL) C. diversus (Citrobacter diversus; [18]): 50 µg/mL; MIC (μg/mL) M. catarrhalis (Moraxella catarrhalis; [19]): 12.5 µg/mL; MIC (μg/mL) E. coli BL21 (E. coli BL21; [20]): 25 µg/mL
PRT1460 (CDCDTVGTRNGSILCDQIGGQCNCKRHVSGRQCNQCQNGFYNLQELDPDGCSP; listed as Homo sapiens)						12.5 µg/mL						MIC against K. pneumonia (Klebsiella pneumonia; Klebsiella pneumonia, 5×10^5 CFU/mL, 10 h cultivation at 37° C.): 50 µg/mL; MIC against P. aeruginosa (Pseudomonas aeruginosa; Pseudomonas aeruginosa, 5×10^5 CFU/mL, 10 h cultivation at 37° C.): 25 µg/mL; MIC against E. cloacae (Enterobacter cloacae; Enterobacter cloacae, 5×10^5 CFU/mL, 10 h cultivation at 37° C.): 25 µg/mL; MIC against A. hydrophila (Aeromonas hydrophila; Aeromonas hydrophila, 5×10^5 CFU/mL, 10 h cultivation at 37° C.): 12.5 µg/mL; MIC against P. vulgaris (Proteus vulgaris; Proteus vulgaris, 5×10^5 CFU/mL, 10 h cultivation at 37° C.): 25 µg/mL; MIC against P. mirabilis (Proteus mirabilis; Proteus mirabilis, 5×10^5 CFU/mL, 10 h cultivation at 37° C.): 12.5 µg/mL; MIC against S. marcescens (Serratia marcescens; Serratia marcescens, 5×10^5 CFU/mL, 10 h cultivation at 37° C.): 50 µg/mL; MIC against C. diversus (Citrobacter diversus; Citrobacter diversus, 5×10^5 CFU/mL, 10 h cultivation at 37° C.): 25 µg/mL; MIC against M. catarrhalis (Moraxella catarrhalis; Moraxella catarrhalis, 5×10^5 CFU/mL, 10 h cultivation at 37° C.): 50 µg/mL; MIC against E. coli BL21 (E. coli BL21; E. coli BL21, 5×10^5 CFU/mL, 10 h cultivation at 37° C.): 25 µg/mL
PRT186 (STLSCADSPCFNGGSCRERNQGANYACECPPNFTGSNCE; listed as Homo sapiens)	25 µg/mL	12.5 µg/mL	50 µg/mL	25 µg/mL	25 µg/mL	12.5 µg/mL	12.5 µg/mL	12.5 µg/mL	12.5 µg/mL	25 µg/mL	50 µg/mL	
PRT832 (DVDECAAGLAQCAHGCLNTQGSFKCVCHAGYELGADGRQCY; listed as Homo sapiens)	12.5 µg/mL	12.5 µg/mL	25 µg/mL	12.5 µg/mL	25 µg/mL	50 µg/mL	12.5 µg/mL	12.5 µg/mL	25 µg/mL	12.5 µg/mL	12.5 µg/mL	
PRT227 (KGNNCRDSTLCPAYATCTNTVDSYYCACKQGFLSSNGQNHFKDPGVRCK; listed as Homo sapiens)	12.5 µg/mL	12.5 µg/mL	12.5 µg/mL	12.5 µg/mL	25 µg/mL	12.5 µg/mL	12.5 µg/mL	50 µg/mL	50 µg/mL	25 µg/mL	12.5 µg/mL	
PRT999 (PEDNCTCHHGHCQRSSCVCDVGWTGPECE; listed as Homo sapiens)						12.5 µg/mL						MIC (Klebsiella pneumonia; K. pneumonia, 10 h cultivation at 37° C.): 12.5 µg/mL; MIC (Pseudomonas aeruginosa; P. aeruginosa, 10 h cultivation at 37° C.): 25 µg/mL; MIC (Enterobacter cloacae; E. cloacae, 10 h cultivation at 37° C.): 25 µg/mL; MIC (Aeromonas hydrophila; A. hydrophila, 10 h cultivation at 37° C.): 50 µg/mL; MIC (Proteus vulgaris; P. vulgaris, 10 h cultivation at 37° C.): 25 µg/mL; MIC (Proteus mirabilis; P. mirabilis, 10 h cultivation at 37° C.): 50 µg/mL; MIC (Serratia marcescens; S. marcescens, 10 h cultivation at 37° C.): 12.5 µg/mL; MIC (Citrobacter diversus; C. diversus, 10 h cultivation at 37° C.): 12.5 µg/mL; MIC (Moraxella catarrhalis; M. catarrhalis, 10 h cultivation at 37° C.): 25 µg/mL; MIC (E. coli BL21; E. coli BL21, 10 h cultivation at 37° C.): 50 µg/mL
PRT261 (CAHGHGGCSPHANCTKVAPGQRTCTCQDGYMGDGELC; listed as Homo sapiens)	12.5 µg/mL	12.5 µg/mL	50 µg/mL	12.5 µg/mL	12.5 µg/mL	12.5 µg/mL	25 µg/mL	50 µg/mL	25 µg/mL	50 µg/mL	12.5 µg/mL	
PRT734 (NNNPCLENNGGCSHLCFALPGLHTPKCDCAFGTLQSDGKNCA; listed as Homo sapiens)						50 µg/mL						MIC K. pneumonia (Klebsiella pneumonia; [21]): 50 µg/mL; MIC P. aeruginosa (Pseudomonas aeruginosa; [21]): 25 µg/mL; MIC E. cloacae (Enterobacter cloacae; [21]): 12.5 µg/mL; MIC A. hydrophila (Aeromonas hydrophila; [21]): 50 µg/mL; MIC P. vulgaris (Proteus vulgaris; [21]): 25 µg/mL; MIC P. mirabilis (Proteus mirabilis; [21]): 25 µg/mL; MIC S. marcescens (Serratia marcescens; [21]): 50 µg/mL; MIC C. diversus (Citrobacter diversus; [21]): 25 µg/mL; MIC M. catarrhalis (Moraxella catarrhalis; [21]): 12.5 µg/mL; MIC E. coli BL21 (E. coli BL21; [21]): 12.5 µg/mL
PRT436 (DINECEHRNHTCNLQQTCYNLQGGFKCIDPIRCEEPYLRISDNRCM; listed as Homo sapiens)						12.5 µg/mL						MIC (Klebsiella pneumonia; [1]): 25 µg/mL; MIC (Pseudomonas aeruginosa; [2]): 50 µg/mL; MIC (Enterobacter cloacae; [3]): 12.5 µg/mL; MIC (Aeromonas hydrophila; [4]): 50 µg/mL; MIC (Proteus vulgaris; [5]): 50 µg/mL; MIC (Proteus mirabilis; [6]): 12.5 µg/mL; MIC (Serratia marcescens; [7]): 100 µg/mL; MIC (Citrobacter diversus; [8]): 12.5 µg/mL; MIC (Moraxella catarrhalis; [9]): 50 µg/mL; MIC (E. coli BL21; [10]): 25 µg/mL
PRT1061 (KRDPCLRKYKDFCIHGECKYVKELRAPSCICHPGYHGERCH; listed as Homo sapiens)						12.5 µg/mL						MIC K. pneumonia (Klebsiella pneumonia; [22]): 12.5 µg/mL; MIC P. aeruginosa (Pseudomonas aeruginosa; [22]): 12.5 µg/mL; MIC E. cloacae (Enterobacter cloacae; [22]): 12.5 µg/mL; MIC A. hydrophila (Aeromonas hydrophila; [22]): 12.5 µg/mL; MIC P. vulgaris (Proteus vulgaris; [22]): 12.5 µg/mL; MIC P. mirabilis (Proteus mirabilis; [22]): 25 µg/mL; MIC S. marcescens (Serratia marcescens; [22]): 25 µg/mL; MIC C. diversus (Citrobacter diversus; [22]): 12.5 µg/mL; MIC M. catarrhalis (Moraxella catarrhalis; [22]): 50 µg/mL; MIC E. coli BL21 (E. coli BL21; [22]): 12.5 µg/mL
PRT43 (CKCNGHASLCNTNTGKCFCTTKGVKGDECQLCEVENRYQGNPLRGTCYY; listed as Homo sapiens)						12.5 µg/mL						MIC (μg/mL) K. pneumonia (Klebsiella pneumonia; [11]): 25 µg/mL; MIC (μg/mL) P. aeruginosa (Pseudomonas aeruginosa; [12]): 12.5 µg/mL; MIC (μg/mL) E. cloacae (Enterobacter cloacae; [13]): 12.5 µg/mL; MIC (μg/mL) A. hydrophila (Aeromonas hydrophila; [14]): 25 µg/mL; MIC (μg/mL) P. vulgaris (Proteus vulgaris; [15]): 25 µg/mL; MIC (μg/mL) P. mirabilis (Proteus mirabilis; [16]): 12.5 µg/mL; MIC (μg/mL) S. marcescens (Serratia marcescens; [17]): 12.5 µg/mL; MIC (μg/mL) C. diversus (Citrobacter diversus; [18]): 12.5 µg/mL; MIC (μg/mL) M. catarrhalis (Moraxella catarrhalis; [19]): 25 µg/mL; MIC (μg/mL) E. coli BL21 (E. coli BL21; [20]): 25 µg/mL
